The results in this text go back to patent US20240034743A9, “TRICYCLIC COMPOUNDS AS EGFR INHIBITORS” (QILU PHARMACEUTICAL CO., LTD., priority 2020, published 2024).

pIC50: −log10 of the molar value. Read-outs that look alike come from different tables or passages of the source.

For one assay, the target named is EGFR WT (wild type EGFR) (Homo sapiens (Human), UniProt P00533). Nature of the assay: In vitro enzymatic TR-FRET (HTRF KinEASE-TK) kinase assay, EGFR WT. Type of assay: biochemical. Conditions: kinase activity, TR-FRET; read-out: EGFR (WT) IC50. The method, then:
(I) In Vitro Enzymatic Experiment for EGFR WT and EGFR L858R/T790M/C797S
In the assay, the inhibition effect of the compound on the kinase activity of EGFR WT (wild type EGFR) and EGFR L858R/T790M/C797S was tested by adopting a time-resolved fluorescence resonance energy transfer (TR-FRET) method, and half maximal inhibitory concentration IC50 of the compound on the kinase activity of EGFR was obtained.
EGFR recombinase and EGFR L858R/T790M/C797S recombinase, purchased from Signalchem.
HTRF KinEASE-TK kit, purchased from Cisbio.
DTT, MnCl2, and MgCl2, purchased from Sigma.
ATP, purchased from Promega.
(§1) Brigatinib, purchased from Selleck.
1) 1× working solution was prepared: 5 mM MgCl2; 1 mM DTT; 1 mM MnCl2 and 1× kinase buffer (in kit).
2) […] of gradiently-diluted compound was transferred to a 384-well plate using Echo 550 (Labcyte).
3) 5 μL of 2× EGFR WT or EGFR L858R/T790M/C797S recombinase solution was added to the 384-well plate, and the plate was incubated at room temperature for 10 min.
4) 5 μL of 2× TK-substrate-biotin substrate solution (containing ATP) was added to the 384-well plate, and the plate was incubated at room temperature for 40 min.
5) 5 μL of assay solution containing Sa-XL 665 HTRF and 5 μL of TK-antibody-Cryptatewas were added to the plate, and the plate was incubated at room temperature for 1 h.
6) The fluorescence signal values at 615 nm and 665 nm were measured for each well using an Envision microplate reader (PerkinElmer).
7) The ratio of fluorescence signal values at 665 nm and 615 nm was calculated for each well.
8) Data analysis was performed using GraphPad Prism software to give the IC50 for compounds.
Background: Time-resolved FRET reads energy transfer from a long-lived donor to a nearby acceptor.

For a further assay, the system named is A431 cells (EGFR WT). In words: A431 cell proliferation inhibition assay (CellTiter-Glo). Conditions: Homo sapiens; for pIC50: A-431, cell proliferation, 72 h, CellTiter-Glo, read-out: A431 EGFR WT IC50. Type of assay: cell-based. As to the method: A431 Cell Proliferation Inhibition Assay
In the assay, the inhibition effect of the compounds on the proliferation of A431 cells was tested by adopting a CellTiter-Glo method, and the concentration IC50 of the compound for inhibiting half maximal growth of cells was obtained.
A431 cells, purchased from ATCC.
DMEM medium, fetal bovine serum (FBS), and Penicillin-Streptomycin, purchased from GIBCO.
as §1
(§2) CellTiter-Glo reagent, purchased from Promega.
1) A431 cells were seeded in a 384-well plate at a density of 800 cells/well with 30 μL/well, and the plate was cultured in a cell incubator for 24 h (37° C., 5% CO2).
(§3) 2) Day 0: […] of gradiently-diluted compounds to be tested with a final concentration of DMSO of 0.1% was added to plate using Echo, and the plate was incubated in a cell incubator for 72 h (37° C., 5% CO2). […] of DMSO was added into each well in blank control group.
(§4) 3) Day 3: 30 μL Cell Titer-Glo reagent was added to each well, and the plate was in the dark under room temperature for 30 min.
(§5) 4) The chemiluminescent signal was detected by an Envision plate reader (PerkinElmer).
(§6) 5) Data analysis was performed using GraphPad Prism software to give the IC50 for compounds.
(In general: Cellular ATP, detected with luciferase, serves as a proxy for viable cell number.)

The test system of assay [1] is Ba/F3_L858R/T790M/C797S cells. Nature of the assay: Ba/F3_L858R/T790M/C797S cell proliferation inhibition assay (CellTiter-Glo). Type of assay: cell-based. The conditions noted are these: Mus musculus; for pIC50: BaF3, cell proliferation, 72 h, CellTiter-Glo, read-out: Ba/F3 (L858R/T790M/C797S) IC50. The method, then:
Ba/F3_L858R/T790M/C797S Cell Proliferation Inhibition Assay
In the assay, the inhibition effect of the compounds on the proliferation of Ba/F3_L858R/T790M/C797S cells was tested by adopting a CellTiter-Glo method, and the concentration IC50 of the compound for inhibiting half maximal growth of cells was obtained.
Ba/F3_L858R/T790M/C797S cells were constructed by Pharmaron Beijing Co., Ltd.
1640 medium, fetal bovine serum (FBS), Penicillin-Streptomyces, and GlutaMAX-I Supplement, purchased from GIBCO.
as §1, §2
1) Ba/F3_L858R/T790M/C797S cells were seeded in a 384-well plate at a density of 700 cells/well with 30 μL/well.
as §3, §4, §5, §6

Assay [2] deals with Ba/F3_Del19/T790M/C797S cells. In words: Ba/F3_Del19/T790M/C797S cell proliferation inhibition assay (CellTiter-Glo). Type of assay: cell-based. The conditions noted are these: Mus musculus; for pIC50: BaF3, cell proliferation, 72 h, CellTiter-Glo, read-out: Ba/F3 (Del19/T790M/C797S) IC50. As to the method: Ba/F3_Del19/T790M/C797S Cell Proliferation Inhibition Assay
In the assay, the inhibition effect of the compounds on the proliferation of Ba/F3_Del19/T790M/C797S cells was tested by adopting a CellTiter-Glo method, and the concentration IC50 of the compound for inhibiting half maximal growth of cells was obtained.
Ba/F3_Del19/T790M/C797S, purchased from Kyinno Biotechnology Co., Ltd. 1640 medium, fetal bovine serum (FBS), Penicillin-Streptomyces, and GlutaMAX-I Supplement, purchased from GIBCO.
as §1, §2
1) Ba/F3_Del19/T790M/C797S cells were seeded in a 384-well plate at a density of 700 cells/well with 30 μL/well.
as §3, §4, §5
Data analysis was performed using GraphPad Prism 6 software to give the IC50 for compounds.

Chain of EGFR WT (wild type EGFR) (P00533 25-1210): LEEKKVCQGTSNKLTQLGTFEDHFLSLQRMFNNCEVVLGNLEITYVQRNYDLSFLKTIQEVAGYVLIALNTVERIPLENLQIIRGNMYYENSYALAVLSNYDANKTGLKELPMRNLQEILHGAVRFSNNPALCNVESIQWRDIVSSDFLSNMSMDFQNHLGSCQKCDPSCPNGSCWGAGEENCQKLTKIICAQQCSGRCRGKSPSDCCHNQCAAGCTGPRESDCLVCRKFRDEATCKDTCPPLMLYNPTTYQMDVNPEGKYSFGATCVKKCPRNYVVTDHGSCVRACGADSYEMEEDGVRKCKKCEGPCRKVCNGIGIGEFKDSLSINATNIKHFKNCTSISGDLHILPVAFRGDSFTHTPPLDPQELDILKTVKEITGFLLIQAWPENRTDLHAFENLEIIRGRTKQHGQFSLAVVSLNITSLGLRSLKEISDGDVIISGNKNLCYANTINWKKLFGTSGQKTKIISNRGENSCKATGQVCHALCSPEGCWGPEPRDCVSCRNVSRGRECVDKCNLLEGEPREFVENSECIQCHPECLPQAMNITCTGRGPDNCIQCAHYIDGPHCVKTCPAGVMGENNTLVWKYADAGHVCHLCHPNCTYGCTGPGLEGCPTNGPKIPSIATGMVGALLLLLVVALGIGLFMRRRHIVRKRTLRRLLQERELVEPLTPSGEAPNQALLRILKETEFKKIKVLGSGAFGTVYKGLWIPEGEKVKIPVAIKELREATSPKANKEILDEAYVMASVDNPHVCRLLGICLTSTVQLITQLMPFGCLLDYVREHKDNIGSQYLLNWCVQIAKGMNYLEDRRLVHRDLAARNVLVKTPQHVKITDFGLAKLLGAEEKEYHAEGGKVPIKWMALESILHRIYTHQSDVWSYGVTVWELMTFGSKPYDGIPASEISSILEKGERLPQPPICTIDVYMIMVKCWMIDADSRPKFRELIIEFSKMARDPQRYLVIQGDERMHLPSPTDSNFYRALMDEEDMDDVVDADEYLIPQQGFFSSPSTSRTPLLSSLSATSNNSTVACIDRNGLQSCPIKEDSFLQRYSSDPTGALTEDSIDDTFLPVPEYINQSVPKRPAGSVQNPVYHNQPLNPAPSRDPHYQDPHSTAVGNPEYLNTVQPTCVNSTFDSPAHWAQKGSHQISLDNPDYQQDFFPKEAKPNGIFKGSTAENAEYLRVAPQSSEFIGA

In the case of `COc1cc2c(cc1Nc1nc(Nc3ccccc3P(C)(C)=O)c3sccc3n1)-c1cnn(C)c1CCN2C` [Compound 58], the pIC50 was 7.30 to 8.00 at EGFR WT (wild type EGFR), less than 6.00 in the assay with A431 cells (EGFR WT), 7.30 to 8.00 in assay [1] and 7.30 to 8.00 in assay [2].

In the case of `COc1cc2c(cc1Nc1ncc(Br)c(Nc3ccc4nccnc4c3P(C)(C)=O)n1)-c1cnn(C)c1CCC2O` (centres unmarked) [Compound 24], the pIC50 was 8.00 to 9.00 at EGFR WT (wild type EGFR), 6.00 to 7.00 with A431 cells (EGFR WT), more than 8.00 in assay [1] and more than 8.00 in assay [2].

With `CCc1cnc(Nc2cc3c(cc2OC)N(C)CCc2c-3cnn2C)nc1Nc1ccccc1P(C)(C)=O` [Compound 25], the pIC50 on EGFR WT (wild type EGFR) is 8.00 to 9.00; in the assay with A431 cells (EGFR WT), 6.00 to 7.00; in assay [1], 7.30 to 8.00; in assay [2], more than 8.00.

Consider `CNC(=O)c1c(Nc2nc(Nc3cc4c(cc3OC)N(C(C)C)CCc3c-4cnn3C)ncc2Br)ccc2nccnc12` [Compound 129], for which the pIC50 at EGFR WT (wild type EGFR) is 8.00 to 9.00; with A431 cells (EGFR WT), 6.00 to 7.00; in assay [1] it was 7.30 to 8.00; in assay [2] it was 7.30 to 8.00.

For the compound `COc1cc2c(cc1Nc1ncc(Br)c(Nc3ccc(F)cc3NS(C)(=O)=O)n1)-c1cnn(C)c1CCN2C(C)C` [Compound 128], the pIC50 was 8.00 to 9.00 at EGFR WT (wild type EGFR), less than 6.00 in the assay with A431 cells (EGFR WT), more than 8.00 in assay [1] and more than 8.00 in assay [2].

Turning to `COc1cc2c(cc1Nc1ncc(Br)c(Nc3ccc4nccnc4c3P(C)(C)=O)n1)-c1cnn(C)c1CN(C)C2` [Compound 11], the pIC50 on EGFR WT (wild type EGFR) was 8.00 to 9.00; in the assay on A431 cells (EGFR WT), 6.00 to 7.00; in assay [1], more than 8.00; in assay [2], more than 8.00.

Turning to `COc1cc2c(cc1Nc1ncc(Br)c(Nc3ccccc3P(C)(C)=O)n1)-c1cnn(C)c1CCN2CC(F)(F)F` [Compound 73], the pIC50 on EGFR WT (wild type EGFR) was 7.30 to 8.00; in the assay with A431 cells (EGFR WT), 6.00 to 7.00; in assay [1] it was 7.30 to 8.00; in assay [2], 7.30 to 8.00.

In the case of `COc1cc2c(cc1Nc1ncc(Cl)c(Nc3ccc4nccnc4c3NS(C)(=O)=O)n1)-c1cnn(C)c1CCN2C(C)C` [Compound 103], the pIC50 was 8.00 to 9.00 at EGFR WT (wild type EGFR), 6.00 to 7.00 in the assay on A431 cells (EGFR WT), more than 8.00 in assay [1] and more than 8.00 in assay [2].

On to `COc1cc2c(cc1Nc1ncc(Br)c(Nc3ccccc3P(C)(C)=O)n1)-c1cnn(C)c1CCN2C1CCN(C)CC1F` (centres unmarked) [Compound 65], for which the pIC50 at EGFR WT (wild type EGFR) was 8.00 to 9.00; with A431 cells (EGFR WT), 6.00 to 7.00; in assay [1] it was 7.30 to 8.00; in assay [2], more than 8.00.

In the case of `COc1cc2c(cc1Nc1ncc(Br)c(Nc3ccccc3P(C)(C)=O)n1)-c1cnn(C)c1C(F)(F)CN2` [Compound 92], the pIC50 on EGFR WT (wild type EGFR) was 8.00 to 9.00; in the assay on A431 cells (EGFR WT), 6.00 to 7.00; in assay [1] it was 7.30 to 8.00; in assay [2], more than 8.00.

On to `COc1cc2c(cc1Nc1ncc(Br)c(Nc3ccc4nccnc4c3C(=O)N(C)C)n1)-c1cnn(C)c1CCN2C(C)C` [Compound 109], for which, on EGFR WT (wild type EGFR), the pIC50 was 8.00 to 9.00. In addition, the IC50 in the assay on A431 cells (EGFR WT) (A-431, 72 h, read-out: A431 EGFR WT IC50(nM)) was 100 to 1000 nM; in assay [1] (BaF3, 72 h, read-out: Ba/F3 (L858R/T790M/C797S) IC50(nM)) it was 10 to 50 nM; in assay [2] (BaF3, 72 h, read-out: Ba/F3 (Del19/T790M/C797S) IC50(nM)), 10 to 50 nM.

As for `COc1cc2c(cc1Nc1ncc(Br)c(Nc3ccc4nccnc4c3P(C)(C)=O)n1)-c1cnn(C)c1CCN2CC1CC1` [Compound 12], the pIC50 was 8.00 to 9.00 on EGFR WT (wild type EGFR), 6.00 to 7.00 with A431 cells (EGFR WT), more than 8.00 in assay [1] and more than 8.00 in assay [2].

For `COc1cc2c(cc1Nc1nc(Nc3ccccc3P(C)(C)=O)c3cc[nH]c3n1)-c1cnn(C)c1CCN2C` [Compound 36], the pIC50 on EGFR WT (wild type EGFR) was 8.00 to 9.00; with A431 cells (EGFR WT) it was 6.00 to 7.00; in assay [1] it was more than 8.00; in assay [2], more than 8.00.

`COc1cc2c(cc1Nc1ncc(Br)c(Nc3ccc4nccnc4c3P(C)(C)=O)n1)-c1cnn(C)c1CNC2` [Compound 71]: the pIC50 on EGFR WT (wild type EGFR) is 8.00 to 9.00; with A431 cells (EGFR WT) it was 7.00 to 7.30; in assay [1] it was more than 8.00; in assay [2] it was more than 8.00.
